The record followed here is patent publication US6514964B1, “Fused cycloheptane and fused azacycloheptane compounds and their methods of use” (Amgen Inc., priority 1999, dated 2003).

SMILES strings stand for the structures. pIC50: −log10 of the molar value.

This assay has as its system human umbilical cord endothelial cells (HUVEC). Description: HUVEC proliferation assay and/or HUVEC adhesion assay. Format: cell-based. To be noted: bound stated for the listed compounds. Here is the method:
HUVEC Proliferation Assay
1. Coat 3 NUNC polystyrene 96 well plate (VWR, 62409-120; lids 62409-118) with vitronectin (purified internally), fibronectin (Collaborative Biomed 40008A) or fibrinogen (Calbiochem 341578) 50 ng/well in 50 μl PBS, 1 hr @ RT.
a. rinse with 5 mls PBS (no Ca, Mg)
3. Rinse vitronectin plates 1× in 200 μl PBS −/− and add 3000 cells per well in 100 ul growth medium (EBM2 (Clonetics, CC-3156)+EGM2 bullet kit (CC-4176)).
4. Incubate 24 hours at 37° C. to allow attachment.
5. Remove growth medium and add 100 μl growth medium+drugs (25 μM and down by five fold steps in DMSO-0.25% final DMSO concentration).
6. Incubate for 3 days changing media (+drugs).
7. Remove non-adherent cells on Friday with Raindance 12 well plate washer.
8. Wash twice with 200 μl PBS (+Mg & Ca).
9. Tap out excess liquid.
10. Freeze @ −70° C. for 30 minutes.
11. Thaw plate and add 150 μl CyQuant fluorescent dye (Molecular Probes C-7026).
12. Read after 4 minutes @ 485λ (excitation), 530λ (emission).
1. Coat 2 NUNC polystyrene 96 well plates (VWR, 62409-120; lids 62409-118) with 50 μl vitronectin (purified internally) at 50 ng/well in PBS (−Mg & Ca), for 1 hour @ 37° C.
2. Rinse with PBS & block with 150 μl PBS/1% BSA (Sigma A8918), 1 hour at @ 37° C.
3. Prepare drug dilutions:
a. 400 fold concentrate in 100% DMSO
b. 0.25% DMSO [assay]final
c. 10 mM & down (25 μMfinal & down)
d. dilute 1 μl of 400 fold conc into 200 μl adhesion media
a. rinse with 5 ml PBS (no Ca, Mg)
6. Rinse blocking buffer from assay plate and add 50 μl of drug dilutions.
7. Resuspend cells in adhesion media, count and add 2e4 cells/well in 50 μl (4e5/ml).
8. Incubate 60 minutes @ 37° C.
9. Remove non-adherent cells with Raindance 12 well plate washer.
10. Wash twice with 200 μl PBS (+Mg & Ca)
11. Tap out excess liquid.
12. Freeze @ −70° C. for 30 minutes to overnite.
13. Thaw plate and add 150 μl CyQuant fluorescent dye (Molecular Probes C-7026).
14. Read after 2-5 minutes @ 485λ (excitation), 530λ (emission).
Adhesion medium: Media 199 (which contains […] and 0.8 mM MgSO4), 0.5% BSA, 10 mM HEPES, 1 mM MgCl2, and 1 mM MnCl2
What is called pIC50 is the negative decadic logarithm of the IC50, by convention in mol/L. With `O=C(O)CC1CN(CC(=O)NCCCc2ccc3c(n2)NCCC3)CCc2ccccc21` (centres unmarked) [Example 28, 2-(3-{[N-(3-(1,2,3,4-tetrahydropyridino[2,3-b]pyridin-7-yl)propyl)carbamoyl]methyl}-1H,2H,4H,5H-benzo[d]azepinyl)acetic acid], the pIC50 was no less than 4.52.
In the case of `O=C(O)CC1CN(C(=O)NCCCCCNc2ccccn2)CCc2ccccc21` (centres unmarked) [Example 29, 2-(3-{N-(5-(2-pyridylamino)pent-1-yl)carbamoyl}-1H,2H,4H,5H-benzo[d]azepinyl)acetic acid], the pIC50 was no less than 4.52.
As for `O=C(O)CC1CN(C(=O)NCCCc2ccc3c(n2)NCCC3)CCc2ccccc21` (centres unmarked) [Example 30, 2-{3-(N-(3-(1,2,3,4-tetrahydropyridino[2,3-b]pyridin-7-yl)propyl)carbamoyl)-1H,2H,4H,5H-benzo[d]azepin-1-yl}acetic acid], the figure is no less than 4.52; as for `O=C(O)CC1CN(C(=O)CCCCCCNc2ccccn2)CCc2ccccc21` (centres unmarked) [Example 32, 2-{3-(7-(2-pyridylamino)heptanoyl)-1H,2H,4H,5H-benzo[d]azepin-1-yl}acetic acid], no less than 4.52; as for `CC(C)N(CCc1ccc2c(n1)NCCC2)C(=O)N1CCC(CC(=O)O)c2ccccc2C1` (centres unmarked) [Example 41, 2-{2-[N-(methylethyl)-N-(2-(1,2,3,4-tetrahydroyridino[2,3-b]pyridin-7-yl)ethyl)carbamoyl]-1H,3H,4H,5H-benzo[e]azepin-5-yl]acetic acid], no less than 4.52.
Compound `N#C/N=C(\NCCCc1ccc2c(n1)NCCC2)N1CCC(CC(=O)O)c2ccccc2C1` (centres unmarked) [Example 42] showed a pIC50 of no less than 4.52.
As for `O=C(O)CC1CCN(S(=O)(=O)NCCc2ccc3c(n2)NCCC3)Cc2ccccc21` (centres unmarked) [Example 45, 2-(2-(((2-(1,2,3,4-tetrahydropyridino(2,3-b)pyridin-7-yl)ethyl)amino)sulfonyl)-1H,3H,4H,5H-benzo[e]azain-5-yl)acetic acid], the figure is no less than 4.52; as for `O=C(O)CCC1CCN(S(=O)(=O)NCCc2ccc3c(n2)NCCC3)Cc2ccccc21` (centres unmarked) [Example 47], no less than 4.52; as for `O=C(O)C[C@H]1CCN(C(=O)NCCCc2ccc3c(n2)NCCC3)Cc2ccccc21` [Example 52, 2-((5R)-2-(N-(3-(1,2,3,4-tetrahydropyridino(2,3-b)pyridin-7-yl)prop-1-yl)carbamoyl)-1H,3H,4H,5H-benzo[e]azapin-5-yl)acetic acid], no less than 4.52.
To `O=C(O)C[C@H]1CCN(C(=O)NCCc2ccc3c(n2)NCCC3)Cc2ccccc21` [Example 53, 2-((5R)-2-(N-(3-(1,2,3,4-tetrahydropyridino(2,3-b)pyridin-7-yl)ethyl)carbamoyl)-1H,3H,4H,5H-benzo[e]azapin-5-yl)acetic acid] belongs no less than 4.52; to `O=C(O)C[C@@H]1CCN(C(=O)NCCc2ccc3c(n2)NCCC3)Cc2ccccc21` [Example 54, 2-((5S)-2-(N-(3-(1,2,3,4-tetrahydropyridino(2.3-b)pyridin-7-yl)ethyl)carbamoyl)-1H,3H,4H,5H-benzo[e]azapin-5-yl)acetic acid], no less than 4.52; to `O=C(O)C[C@@H]1CCN(C(=O)CCCc2ccc3c(n2)NCCC3)Cc2ccccc21` [Example 55], no less than 4.52.
`O=C(O)CC1CCN(C(=O)CCCc2ccc3c(n2)NCCC3)Cc2ccccc21` (centres unmarked) [Example 56, 2-[2-(4-(1,2,3,4-tetrahydropyridino[2,3-b]pyridin-7-yl)butanoyl)-1H,3H,4H,5H-benzo[e]azepin-5-yl]acetic acid] gave a pIC50 of no less than 4.52.
As for `O=C(O)CC1Cn2cc(C(=O)NCCc3ccc4c(n3)NCCC4)nc2Cc2ccccc21` (centres unmarked) [Example 63, 2-{2-[N-(2-(1,2,3,4-tetrahydropyridino [2,3-b]pyridin-7-yl)ethyl)carbamoyl]-4H,5H,10H-benzo[d]imidazolo[1,2-a]azepin-5-yl}acetic acid], the figure is no less than 4.52.
